Reference: PMC6751662, “Pharmacological and functional similarities of the human neuropeptide Y system in C. elegans challenges phylogenetic views on the FLP/NPR system” (Cell Communication and Signaling : CCS, 2019)

Key:
NPR-3 = biological target: T1, NPR-3 (Caenorhabditis elegans, UniProt P90745); assay: IP accumulation assay, co-transfected Gα16, NPR-3; assay type: cell-based, C. elegans; conditions: 1 h, HBSS + 20 mM LiCl, HEK293 receptor + Gα16, HTRF IP-One, mean of >=3 independent experiments
T1 construct: expressed in transfected cells; host or cells: HEK293
T1 sequence (P90745 1-376): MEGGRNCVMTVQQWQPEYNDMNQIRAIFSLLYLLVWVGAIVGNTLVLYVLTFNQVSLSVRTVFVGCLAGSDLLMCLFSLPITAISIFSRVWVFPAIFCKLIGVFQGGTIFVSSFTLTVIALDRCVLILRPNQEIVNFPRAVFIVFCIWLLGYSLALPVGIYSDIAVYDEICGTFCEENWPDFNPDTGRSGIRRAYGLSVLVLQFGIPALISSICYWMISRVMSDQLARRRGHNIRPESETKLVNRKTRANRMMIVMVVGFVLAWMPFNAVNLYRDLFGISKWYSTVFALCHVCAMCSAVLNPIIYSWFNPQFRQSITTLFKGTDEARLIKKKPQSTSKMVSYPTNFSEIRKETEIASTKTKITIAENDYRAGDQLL
Method: (§1) For measuring IP accumulation, HEK293 cells grown to 70–80% confluency in 6-well plates were transiently co-transfected using Metafectene Pro (2.5 μl/μg DNA; Biontex) with plasmids containing receptor and/or mock (empty pcDNA3.1) (for endogenous Gq-coupling) using 4 μg total DNA in a ratio of 3:1 following the manufacturer’s instructions. For testing Gα16- and GαΔ6qi4myr-coupling, plasmids encoding the corresponding Gα protein were co-transfected instead of mock. Gα16 is naturally promiscuous and stimulates the phospholipase C (PLC) pathway leading to IP production, while the exchange of the C-terminal four amino acids of Gαq for the corresponding residues of Gαi1 in the chimeric GαΔ6qi4myr confers the ability to couple to Gi/o protein-preferring receptors but still stimulate PLC, thus specifically redirecting downstream cellular signaling. 16 h post transfection, the cells were seeded into white 384-well plates at a density of 20,000 cells/well. Media was removed 24 h later and the cells were incubated with the indicated concentration of peptides for 1 h in HBSS + 20 mM LiCl. IP accumulation was measured with the HTRF-based IP-One Gq kit (Cisbio) on a microplate reader (Tecan Spark).
(§2) For in vitro activation, data is presented as mean ± SEM of at least three independent experiments conducted in technical triplicate. […]

NPR-4b = biological target: T2, NPR-4b (Caenorhabditis elegans, UniProt A0A078BTK0); assay: IP accumulation assay, co-transfected Gα16, NPR-4b; assay type: cell-based, C. elegans; conditions: 1 h, HBSS + 20 mM LiCl, HEK293 receptor + Gα16, HTRF IP-One, mean of >=3 independent experiments
T2 sequence (A0A078BTK0 1-376): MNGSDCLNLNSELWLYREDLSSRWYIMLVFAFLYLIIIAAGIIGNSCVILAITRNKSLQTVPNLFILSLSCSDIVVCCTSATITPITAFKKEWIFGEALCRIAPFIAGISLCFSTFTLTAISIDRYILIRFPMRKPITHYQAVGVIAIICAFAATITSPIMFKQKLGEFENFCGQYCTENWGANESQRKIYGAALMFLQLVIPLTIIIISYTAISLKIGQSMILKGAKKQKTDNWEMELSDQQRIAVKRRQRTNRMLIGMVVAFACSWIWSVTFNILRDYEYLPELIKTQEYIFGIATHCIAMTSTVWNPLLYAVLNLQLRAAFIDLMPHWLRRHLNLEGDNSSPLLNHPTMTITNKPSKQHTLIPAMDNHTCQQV
Method: as §1, §2

[1] = 0.1 nM peptide (so in the source)

## APKPKFIRF-NH2 [FLP-5-1, C. elegans FMRFamide-like peptide, C-terminally amidated, synthesized by SPPS]
NPR-3; [1]
  IP assay endog. Gαq + Gα16, NPR-3: 0.93 x-fold of basal
NPR-3; 10 µM peptide
  IP assay endog. Gαq + Gα16, NPR-3: 0.81 x-fold of basal
NPR-4b; [1]
  IP assay endog. Gαq + Gα16, NPR-4b: 1.04 x-fold of basal
NPR-4b; 10 µM peptide
  IP assay endog. Gαq + Gα16, NPR-4b: 0.84 x-fold of basal
